Data published in the supplement of paper PMC10326909.

Assay: ESI positive response factor (isotope-corrected peak area per molar concentration) in SFC/ESI/HRMS (area units per M); higher = higher ionization efficiency
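Further: standards in acetonitrile/water run in triplicate on a zwitterionic HILIC column, CO2–methanol gradient containing 20 mmol/L ammonium acetate, postcolumn makeup flow, Orbitrap full-scan detection.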

Row | Compound | ESI positive response factor (0.0875 µM) | ESI positive response factor (0.35 µM) | ESI positive response factor (0.875 µM) | ESI positive response factor (0.0175 µM) | ESI positive response factor (0.035 µM) | ESI positive response factor (0.175 µM) | further results
1 | CC(=O)N1CC(O)C[C@H]1C(=O)O (stereo in doubt) [Trans-1-acetyl-4-hydroxy-L-prolin] | 1.56e+15 | 6.42e+15 | 6.4e+15 | – | – | – | ESI positive response factor (1.75 µM): 6.39e+15
2 | CN1C(C)(C)CC(O)CC1(C)C [1,2,2,6,6-Pentamethyl-4-piperidinol] | 5.02e+17 | 4.69e+17 | 4.18e+17 | 4.91e+17 | 5.26e+17 | 4.63e+17 | ESI positive response factor (1.75 µM): 3.68e+17
3 | CN1CCN(C)C1=O [1,3-Dimethyl-2-imidazolidinone] | 6.75e+16 | – | – | 6.51e+16 | 7.85e+16 | 6.53e+16 | –
4 | CC(O)CN(CCO)CCO (configuration not stated) [1-[N,N-Bis(2-hydroxyethyl)amino]-2-propanol] | 3.24e+17 | 2.94e+17 | – | 2.91e+17 | 3.14e+17 | 2.77e+17 | –
5 | CC1(C)CC(O)CC(C)(C)N1 [2,2,6,6-Tetramethyl-4-piperidinol] | 1.53e+17 | 1.58e+17 | – | 1.95e+17 | 1.78e+17 | 1.47e+17 | –
6 | Nc1nc(N)c2nc(CO)cnc2n1 [2,4-Diamino-6-(hydroxymethyl)pteridine] | 4.27e+16 | 3.92e+16 | 4.05e+16 | 2.75e+16 | 4.33e+16 | 3.56e+16 | –
7 | CCCCCC(C)N (configuration not stated) [2-Aminoheptane] | 1.47e+16 | – | – | – | 1.87e+16 | – | –
8 | CCCCC(CC)CN (configuration not stated) [2-Ethyl-1-hexylamine] | – | 1.94e+16 | – | – | – | 2.01e+16 | –
9 | OCC[C@@H]1CCCC[NH2+]1 [2-Piperidineethanol] | – | – | – | – | – | – | ESI positive response factor (0.0122 µM): 1.24e+17; ESI positive response factor (0.0244 µM): 1.22e+17; ESI positive response factor (0.061 µM): 9.77e+16; ESI positive response factor (0.122 µM): 1.07e+17; ESI positive response factor (0.244 µM): 1.07e+17
10 | O=C1CCCN1 [2-Pyrrolidinone] | – | 8.52e+15 | 1.07e+16 | – | – | 8.26e+15 | ESI positive response factor (1.75 µM): 8.7e+15
11 | C[NH2+]C[C@H](O)CO [3-Methylamino-1,2-propanediol] | – | – | – | – | – | – | ESI positive response factor (0.0122 µM): 7.17e+16; ESI positive response factor (0.0244 µM): 4.4e+16; ESI positive response factor (0.061 µM): 6.78e+16; ESI positive response factor (0.122 µM): 6.39e+16; ESI positive response factor (0.244 µM): 7.28e+16; ESI positive response factor (0.61 µM): 6.66e+16

Further lines, with some results ahead:

Row | ESI positive response factor (0.0875 µM) | ESI positive response factor (0.35 µM) | ESI positive response factor (0.875 µM) | ESI positive response factor (0.0175 µM) | ESI positive response factor (0.035 µM) | ESI positive response factor (0.175 µM) | Compound | further results
12 | 2.2e+16 | 2.34e+16 | 2.22e+16 | 1.77e+16 | 2.12e+16 | 2e+16 | Cn1cnc2c1c(=O)n(CCCC(=O)O)c(=O)n2C [1-(3-Carboxypropyl)-3,7-dimethyl-xanthin] | –
13 | 1.11e+16 | 1.37e+16 | – | – | 7.96e+15 | 1.18e+16 | c1ccc2[nH]nnc2c1 [1H-Benzotriazol] | –
14 | 2.14e+16 | 2.46e+16 | 2.38e+16 | – | 1.78e+16 | 2.26e+16 | NC(=O)c1c(Cl)cccc1Cl [2,6-Dichlorbenzamid] | –
15 | 1.55e+16 | 1.73e+16 | – | – | 1.33e+16 | 1.48e+16 | Nc1ccccn1 [2-Aminopyridine] | –
16 | – | 5.75e+15 | 5.13e+15 | – | – | 4.79e+15 | c1ccc(CC2=NCCN2)cc1 [2-Benzylimidazoline] | ESI positive response factor (1.75 µM): 4.96e+15
17 | 7.22e+14 | 3.87e+15 | 4.7e+15 | – | – | – | O=S(=O)(O)c1ccc2nc(-c3ccccc3)[nH]c2c1 [2-Phenyl-5-benzimidazole] | ESI positive response factor (1.75 µM): 4.96e+15
